Experimental data reported in publication PMC12693135, “Ocular Toxicity and Mechanistic Investigation for Berberine and Its Metabolite Berberrubine on Zebrafish” (Molecules, 2025).

Experiments:
[1] = system: wild-type AB strain zebrafish; experiment: qPCR gene expression in zebrafish larvae; format: in vivo, zebrafish (Danio rerio); settings: BBR 25 or 50 μM, M1 100 or 200 μM
Description: Wild-type AB strain zebrafish (6 hpf) were treated with BBR (25 or 50 μM), M1 (100 or 200 μM), or 0.05% DMSO (control) until 5 dpf, with 30 larvae per treatment and three biological replicates (total 90 larvae per group). A total of 30 larvae were pooled per sample (3 samples per group), collected, and homogenized. Total RNA was isolated using a commercial RNA extraction kit following the manufacturer’s protocol. The concentration and purity of the extracted RNA were determined by measuring the absorbance at 260 nm and 280 nm using a NanoDrop 2000 ultraviolet-visible spectrophotometer (Thermo, Waltham, MA, USA). A total of 1 µg of RNA from each sample was reverse-transcribed into complementary DNA (cDNA) using a PrimeScript RT reagent kit (Takara Bio Inc., Dalian, China). The reverse transcription reaction was performed in a T100 Thermal Cycler (BIO-RAD, Singapore) under the following conditions: 37 °C for 15 min, followed by 85 °C for 5 s.
The qPCR reactions were carried out to quantify the relative expression levels of target genes, including photoreceptor-related genes (rho and opn1sw), mitochondrial dynamics genes (mfn2 and drp1), autophagy markers (lc3b and p62), apoptosis-related genes (baxa, bcl2a, caspase9, caspase3, and caspase7), and inflammation-related genes (il1b and il6), on a CFX Connect quantitative real-time PCR instrument (BIO-RAD, Singapore). The experiment was performed according to the manufacturer’s instruction. β-actin served as the internal reference, and the experiment was repeated in triplicate.

[2] = system: mitochondrial complex I (NADH dehydrogenase); experiment: Mitochondrial complex I activity assay in treated zebrafish larvae; format: in vivo, zebrafish (Danio rerio); settings: BBR 25 or 50 μM, M1 100 or 200 μM, 5 dpf
Description: Wild-type AB strain zebrafish (6 hpf) were treated with BBR (25 or 50 μM), M1 (100 or 200 μM), or 0.05% DMSO (control) until 5 dpf, with 9 larvae per treatment and three biological replicates ([…]). Three zebrafish larvae were harvested per group (3 samples per group) and homogenized on ice following the protocol of the Mitochondrial Respiratory Chain Complex I Activity Assay Kit (Solabor, Beijing, China). Briefly, cell homogenates were centrifuged at 600× g for 5 min at 4 °C, and the supernatants were transferred to new microcentrifuge tubes. The samples were then centrifuged again at 11,000× g for 10 min at 4 °C; the precipitates (containing mitochondria) were used for the complex I activity assay. These precipitates were subjected to ultrasonication in the appropriate reaction buffer, and reactions were set up according to the protocol. After mixing, the OD340 values at time 0 (OD1) and at 2 min (OD2) were recorded using a Synergy H1 multifunctional microplate reader (Biotek, Winooski, VT, USA). The ΔOD value was calculated by subtracting OD2 from OD1. Mitochondrial complex I activity was calculated according to the formula provided in the protocol and expressed as units per mg of sample protein.

[3] = system: transgenic mitochondrial fluorescent zebrafish (strain Tg(Xla.Eef1a1:mlsEGFP)); experiment: Fluorescence microscopy for mitochondrial function; format: in vivo, zebrafish (Danio rerio); settings: 5-dpf larvae; BBR 25 or 50 μM, M1 100 or 200 μM
Description: Strain Tg(Xla.Eef1a1:mlsEGFP) zebrafish larvae (6 hpf) were treated with BBR (25 or 50 μM), M1 (100 or 200 μM), or 0.05% DMSO (control) until 5 dpf, with 30 larvae per treatment and three biological replicates (total 90 larvae per group). Then, 10 larvae were randomly selected from each experimental group and imaged using a motorized-focus continuous-zoom fluorescence microscope AZ100 (Nikon, Japan) with the magnification of 10–40× and exposure time of 200–500 ms. The fluorescence intensity of ocular apoptotic cells in zebrafish larvae and mitochondria throughout the zebrafish were measured and analyzed using NIS-Elements (Nikon Imaging Software, Nikon, Japan). The experiment was conducted three times in parallel.

[4] = system: wild-type AB strain zebrafish; experiment: Determination of ATP and ROS levels in zebrafish larvae; format: in vivo, zebrafish (Danio rerio); settings: BBR 25 or 50 μM, M1 100 or 200 μM, 5 dpf; for ROS levels: relative to control
Description: Wild-type AB strain zebrafish (6 hpf) were treated with BBR (25 or 50 μM), M1 (100 or 200 μM), or 0.05% DMSO (control) until 5 dpf, with 30 larvae per treatment and three biological replicates (total 90 larvae per group). Subsequently, 3 larvae were pooled per sample (10 samples per group) and the entire zebrafish was transferred directly into a 96-well plate for fluorescence detection. Cellular ATP content was determined using the CellTiter-Glo® Luminescent Cell Viability Assay Kit (Promega, Madison, WI, USA), which relies on a bioluminescent principle (luciferase-luciferin reaction). Cellular ROS levels were measured using CM-H2DCFDA kits (Invitrogen, Carlsbad, CA, USA), based on the oxidation of non-fluorescent CM-H2DCFDA to fluorescent DCF by ROS. Reagents were prepared and reactions were performed according to the manufacturers’ instructions, with luminescence detected using a Spark multifunctional microplate reader (Tecan, Grödig, Austria).

[5] = MTT cytotoxicity assay on HCE-T cells; format: cell-based, human; settings: human, HCE-T human corneal epithelial cells; HCE-T cells, 24 h incubation
Description: The human corneal epithelial cell line HCE-T (Cellosaurus accession: CVCL_1272, RRID: CVCL_1272, RCB: RCB2280) was purchased from Procell Life Science and Technology Co., Ltd. (Wuhan, China). […] were cultured in high-glucose Dulbecco’s Modified Eagle Medium (DMEM), which was purchased from Procell Life Science and Technology Co., Ltd. (Wuhan, China). The high-glucose DMEM was DMEM basic medium supplemented with 15% fetal bovine serum (Procell), 1% penicillin/streptomycin (Procell), 5 μg/mL insulin, and 10 ng/mL human epidermal growth factor (Procell).
HCE-T cells were seeded in 96-well plates (8 × 10^3 cells/well, 100 μL medium) and cultured overnight at 37 °C, 5% CO2 for adhesion. BBR or its metabolites at various concentrations (BBR and M3 at the concentrations of 31.25, 62.5, 125, 250 and 500 µM, M1 and M4 at the concentrations of 25, 50, 100, 200 and 400 µM) in 0.5% DMSO were added and incubated for 24 h, with 0.5% DMSO in culture medium as the vehicle control. Subsequently, 20 μL MTT (5 mg/mL) was added to each well and the cells were cultured at 37 °C for 4 h. Then, the culture medium was removed, and 150 μL DMSO was added to dissolve formazan crystals and the absorbance at 570 nm was measured on a Synergy H1 multifunctional microplate reader (Biotek, Winooski, VT, USA). The IC50 values of test compounds were calculated by Graphpad Prism 8.5 (GraphPad Software Co., San Diego, CA, USA).

COc1ccc2cc3[n+](cc2c1OC)CCc1cc2c(cc1-3)OCO2 [BBR, berberine]
bcl2a expression [1]: dose-dependently reduced bcl2a expression
expression of baxa, caspase9, caspase3 and caspase7 [1]: increasing the expression of baxa, caspase9, caspase3 and caspase7
expression of drp1 [1]: increasing that of drp1 in a concentration-dependent manner
expression of lc3b [1]: decreasing the expression of lc3b
expression of mfn2 [1]: decreased the expression of mfn2 dose-dependently
expression of rho and opn1sw genes [1]: reduced the expression of these two genes in a dose-dependent manner
p62 levels [1]: elevation in p62 levels
transcription of il1β and il6 [1]: promoted the transcription of proinflammatory cytokine genes il1β and il6
mitochondrial complex I activity [2]: dose-dependently suppressed
mitochondrial density [3]: decrease in the mitochondrial density
intracellular ATP levels [4]: significantly reduced
ROS levels [4]: marked and dose-dependent increase
IC50 at 24 h [5]: 301 µM

COc1ccc2cc3[n+](cc2c1O)CCc1cc2c(cc1-3)OCO2 [M1, berberrubine]
bcl2a expression [1]: dose-dependently reduced bcl2a expression
expression of baxa, caspase9, caspase3 and caspase7 [1]: increasing the expression of baxa, caspase9, caspase3 and caspase7
expression of drp1 [1]: increasing that of drp1 in a concentration-dependent manner
expression of lc3b [1]: decreasing the expression of lc3b
expression of mfn2 [1]: decreased the expression of mfn2 dose-dependently
expression of rho and opn1sw genes [1]: reduced the expression of these two genes in a dose-dependent manner
p62 levels [1]: elevation in p62 levels
transcription of il1β and il6 [1]: promoted the transcription of proinflammatory cytokine genes il1β and il6
mitochondrial complex I activity [2]: marked, dose-dependent decrease
mitochondrial density [3]: decrease in the mitochondrial density
intracellular ATP levels [4]: significantly reduced
ROS levels [4]: marked and dose-dependent increase
IC50 at 24 h [5]: 232 µM
